Patent US20100291151A1, “1-METHYLPYRAZOLE MODULATORS OF SUBSTANCE P, CALCITONIN GENE-RELATED PEPTIDE, ADRENERGIC RECEPTOR, AND/OR 5-HT RECEPTOR” (priority 2009, published 2010)

Assays:
Format in all cases: in vitro ADME
[1] = target: T1, Supersomes CYP2C8 (Homo sapiens, UniProt P10632); assay: Individual recombinant CYP isoform stability assay, CYP2C8; settings: 200 pmol per mL CYP2C8, 5 microgram per mL compound, 37° C., 0-60 minutes
T1 construct: purchased
T1 sequence (P10632 1-490): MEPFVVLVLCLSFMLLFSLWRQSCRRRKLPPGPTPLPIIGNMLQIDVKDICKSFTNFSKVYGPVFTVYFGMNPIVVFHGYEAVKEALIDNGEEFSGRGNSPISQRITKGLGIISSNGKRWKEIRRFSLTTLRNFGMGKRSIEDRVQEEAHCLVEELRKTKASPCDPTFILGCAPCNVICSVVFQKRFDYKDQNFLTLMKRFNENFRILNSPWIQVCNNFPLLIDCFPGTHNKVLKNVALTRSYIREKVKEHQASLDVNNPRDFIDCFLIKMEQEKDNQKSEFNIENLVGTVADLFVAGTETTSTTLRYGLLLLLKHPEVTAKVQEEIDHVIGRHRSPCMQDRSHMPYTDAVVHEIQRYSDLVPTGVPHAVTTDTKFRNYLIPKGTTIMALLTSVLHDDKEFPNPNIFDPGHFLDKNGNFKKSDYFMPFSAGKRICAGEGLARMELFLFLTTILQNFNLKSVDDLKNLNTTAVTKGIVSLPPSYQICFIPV
Method: (§1) In Vitro Individual Recombinant CYP Isoform Stability Assays
(§2) Individual recombinant CYP isoform stability assays were conducted with Supersomes™ CYP2C19, CYP3A4, CYP3A5, CYP2D6, CYP2C8, and CYP2C9. The CYP isoforms were individually taken up in a NADPH-generating system (4.4 mM NADPH, 51.2 mM glucose 6-phosphate, 12 units per mL glucose 6-phosphate dehydrogenase and 6.6 mM magnesium chloride) in 2% sodium bicarbonate. The final assay concentrations were 100 pmol per mL for the following isoforms: CYP3A4, CYP2C19, and CYP2D6; other CYP isoforms final assay concentrations were 150 pmol per mL, including: CYP1A2 and CYP2C9; and yet other CYP isoforms final assay concentrations were 200 pmol per mL, including: CYP3A5 and CYP2C8. Test compounds were prepared as solutions in 20% acetonitrile-water and added to the assay mixture (final assay concentration 5 microgram per mL) and incubated at 37° C. Final concentration of acetonitrile in the assay should be <1%. Aliquots (50 μL) were taken out at times 0, 15, 30, 45, and 60 minutes, and diluted with ice cold acetonitrile (200 μL) to stop the reactions. Samples were centrifuged at 12,000 RPM for 10 minutes to precipitate proteins. Supernatants were transferred to microcentrifuge tubes and stored for LC/MS/MS analysis of the degradation half-life of the test compounds. […]

[2] = target: T2, Supersomes CYP2C9 (Homo sapiens, UniProt P11712); assay: Individual recombinant CYP isoform stability assay, CYP2C9; settings: 150 pmol per mL CYP2C9, 5 microgram per mL compound, 37° C., 0-60 minutes
T2 construct: purchased
Method: as §1, §2

[3] = target: T3, Supersomes CYP3A4 (Homo sapiens, UniProt P08684); assay: Individual recombinant CYP isoform stability assay, CYP3A4; settings: 100 pmol per mL CYP3A4, 5 microgram per mL compound, 37° C., 0-60 minutes
T3 construct: purchased
Method: as §1, §2

[4] = target: T4, Supersomes CYP3A5 (Homo sapiens, UniProt P20815); assay: Individual recombinant CYP isoform stability assay, CYP3A5; settings: 200 pmol per mL CYP3A5, 5 microgram per mL compound, 37° C., 0-60 minutes
T4 construct: purchased
Method: as §1, §2

T3 sequence (P08684 whole entry, canonical isoform): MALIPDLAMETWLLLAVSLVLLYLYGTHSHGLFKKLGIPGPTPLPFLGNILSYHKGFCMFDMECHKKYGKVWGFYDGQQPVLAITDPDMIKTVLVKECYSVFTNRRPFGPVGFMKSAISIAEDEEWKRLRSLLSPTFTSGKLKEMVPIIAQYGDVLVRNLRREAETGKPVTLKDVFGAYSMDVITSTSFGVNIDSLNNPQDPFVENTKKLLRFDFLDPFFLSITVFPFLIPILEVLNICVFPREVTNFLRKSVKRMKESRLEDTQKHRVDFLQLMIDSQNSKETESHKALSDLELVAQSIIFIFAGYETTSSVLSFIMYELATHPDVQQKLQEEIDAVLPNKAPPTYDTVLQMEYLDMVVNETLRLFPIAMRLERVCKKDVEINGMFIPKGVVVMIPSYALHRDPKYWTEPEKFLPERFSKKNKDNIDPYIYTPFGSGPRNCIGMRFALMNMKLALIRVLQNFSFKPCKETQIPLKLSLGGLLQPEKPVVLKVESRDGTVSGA
T2 sequence (P11712 whole entry, canonical isoform): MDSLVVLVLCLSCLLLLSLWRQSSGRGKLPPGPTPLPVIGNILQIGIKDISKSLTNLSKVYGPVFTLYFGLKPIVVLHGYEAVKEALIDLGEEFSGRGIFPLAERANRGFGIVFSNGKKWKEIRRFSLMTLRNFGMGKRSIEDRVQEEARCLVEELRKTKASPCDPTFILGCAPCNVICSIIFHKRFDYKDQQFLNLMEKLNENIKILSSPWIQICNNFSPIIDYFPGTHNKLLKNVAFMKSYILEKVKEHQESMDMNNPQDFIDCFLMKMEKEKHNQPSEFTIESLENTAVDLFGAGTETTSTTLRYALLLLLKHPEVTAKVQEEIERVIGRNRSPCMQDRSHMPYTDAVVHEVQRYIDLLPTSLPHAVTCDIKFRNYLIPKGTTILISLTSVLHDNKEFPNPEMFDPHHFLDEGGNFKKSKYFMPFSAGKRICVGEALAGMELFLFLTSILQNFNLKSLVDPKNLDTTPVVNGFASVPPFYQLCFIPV
T4 sequence (P20815 whole entry, canonical isoform): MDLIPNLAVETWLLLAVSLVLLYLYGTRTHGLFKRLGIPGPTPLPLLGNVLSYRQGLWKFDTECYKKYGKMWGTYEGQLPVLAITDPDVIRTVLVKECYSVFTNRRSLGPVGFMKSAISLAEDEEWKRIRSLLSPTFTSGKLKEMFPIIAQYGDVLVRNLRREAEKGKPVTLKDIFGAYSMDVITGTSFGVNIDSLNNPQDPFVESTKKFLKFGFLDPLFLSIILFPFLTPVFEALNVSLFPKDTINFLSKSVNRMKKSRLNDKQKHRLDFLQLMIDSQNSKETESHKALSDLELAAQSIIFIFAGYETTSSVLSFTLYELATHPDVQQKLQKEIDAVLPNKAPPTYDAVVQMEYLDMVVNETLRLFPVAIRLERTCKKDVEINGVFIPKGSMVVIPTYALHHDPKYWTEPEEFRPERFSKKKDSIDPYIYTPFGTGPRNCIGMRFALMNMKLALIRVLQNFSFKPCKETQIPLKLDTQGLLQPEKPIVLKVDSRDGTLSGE

CN(C)CCOC(c1ccccc1)c1ccnn1C (stereo not shown) [Cizolirtine, N,N-dimethyl-2-[(1-methyl-1H-pyrazol-5-yl)phenylmethoxy]ethanamine]
not metabolized: metabolism by CYP2C8 [1] | metabolism by CYP2C9 [2] | metabolism by CYP3A4 [3] | metabolism by CYP3A5 [4]
